We go through 8 compounds from ChEMBL document CHEMBL3112506, “Synthesis and structure-activity relationship studies of 4-((2-hydroxy-3-methoxybenzyl)amino)benzenesulfonamide derivatives as potent and selective inhibitors of 12-lipoxygenase” (J Med Chem, 2014).

Series [1] deals with T1, Polyunsaturated fatty acid lipoxygenase ALOX15 (Homo sapiens, UniProt P16050).
T1 sequence (P16050 whole entry): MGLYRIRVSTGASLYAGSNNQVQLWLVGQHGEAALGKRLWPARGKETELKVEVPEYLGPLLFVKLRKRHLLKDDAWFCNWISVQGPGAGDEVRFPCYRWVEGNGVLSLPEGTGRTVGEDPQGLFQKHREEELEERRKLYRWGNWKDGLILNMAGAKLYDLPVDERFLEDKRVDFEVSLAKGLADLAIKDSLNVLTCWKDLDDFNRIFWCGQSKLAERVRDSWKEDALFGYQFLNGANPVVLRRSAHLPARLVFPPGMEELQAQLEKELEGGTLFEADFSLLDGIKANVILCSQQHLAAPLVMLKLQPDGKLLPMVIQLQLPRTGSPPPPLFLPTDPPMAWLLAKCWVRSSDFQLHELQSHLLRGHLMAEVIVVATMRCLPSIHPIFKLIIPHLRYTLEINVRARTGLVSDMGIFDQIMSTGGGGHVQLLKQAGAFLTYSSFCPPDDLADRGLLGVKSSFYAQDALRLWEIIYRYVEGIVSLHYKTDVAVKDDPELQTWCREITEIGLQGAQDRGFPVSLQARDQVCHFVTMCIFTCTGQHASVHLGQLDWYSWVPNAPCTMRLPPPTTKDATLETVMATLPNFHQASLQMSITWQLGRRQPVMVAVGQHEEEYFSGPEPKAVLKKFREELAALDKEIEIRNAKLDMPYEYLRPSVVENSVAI

For the next series, the species on record is Rattus norvegicus. Description: Metabolic stability in rat assessed as glucuronidation. The series is classed as ADME, organism-based. The settings on record: in vitro.
Series [2] in a line: Stability of the compound in HEPES buffer at pH 7.3. The series is classed as physicochemical.
Series [3] is described as follows: Stability of the compound in aqueous buffer at pH 2 to 9. The series is classed as physicochemical.
Series [4] in a line: Aqueous solubility of the compound in PBS buffer at pH 7.4 by chemiluminescent nitrogen detection method. The series is classed as physicochemical.
A short description of series [5]: Stability of the compound in presence of glutathione. The series is classed as ADME.
In series [6] the test system is Mus musculus. Description: Cmax in CD-1 mouse at 30 mg/kg, po. The series is classed as ADME, organism-based. Set-up: dose 30 mg/kg, route oral. Conditions: in vivo.
A short description of series [7]: Metabolic stability in mouse liver microsomes measured over 1 hr in absence of NADPH. The series is classed as ADME, Microsome.
In series [8] the target is Cyclooxygenase (Homo sapiens) (UniProt P35354+P23219). Description: Inhibition of COX1/COX2 (unknown origin) using arachidonic acid as substrate assessed as consumption of oxygen preincubated for 5 mins followed by substrate addition at 15 uM. The series is classed as protein assay.
The subject of series [9] is Mus musculus. Kind of series: AUC (infinity) in CD-1 mouse at 30 mg/kg, po. The series is classed as ADME, organism-based, Plasma. On the set-up: time infinity, dose 30 mg/kg, route oral. The settings on record: in vivo.
Another series concerns Liver microsome. Kind of series: Metabolic stability in rat liver microsomes measured over 1 hr in absence of NADPH. The series is classed as ADME.
Series [10] concerns Mus musculus. Kind of series: Cmax in CD-1 mouse at 3 mg/kg, iv. It counts as ADME, organism-based. On the set-up: dose 3 mg/kg, route intravenous. Conditions: in vivo.
In series [11] the test system is Mus musculus. Description: AUC (infinity) in CD-1 mouse at 3 mg/kg, iv. On the set-up: dose 3 mg/kg, route intravenous, time infinity. The series is classed as ADME, organism-based, Plasma. The settings on record: in vivo.
Series [12] in a line: Aqueous solubility of the compound in PBS buffer at pH 7.4 by LC-UV spectroscopic analysis. It counts as physicochemical.
The test system of series [13] is Mus musculus. Kind of series: Volume of distribution in CD-1 mouse at 3 mg/kg, iv. On the set-up: dose 3 mg/kg, route intravenous. The series is classed as ADME, organism-based. Conditions: in vivo.
The target in series [14] is T2, Polyunsaturated fatty acid lipoxygenase ALOX12 (Homo sapiens, UniProt P18054).
T2 sequence (P18054 whole entry): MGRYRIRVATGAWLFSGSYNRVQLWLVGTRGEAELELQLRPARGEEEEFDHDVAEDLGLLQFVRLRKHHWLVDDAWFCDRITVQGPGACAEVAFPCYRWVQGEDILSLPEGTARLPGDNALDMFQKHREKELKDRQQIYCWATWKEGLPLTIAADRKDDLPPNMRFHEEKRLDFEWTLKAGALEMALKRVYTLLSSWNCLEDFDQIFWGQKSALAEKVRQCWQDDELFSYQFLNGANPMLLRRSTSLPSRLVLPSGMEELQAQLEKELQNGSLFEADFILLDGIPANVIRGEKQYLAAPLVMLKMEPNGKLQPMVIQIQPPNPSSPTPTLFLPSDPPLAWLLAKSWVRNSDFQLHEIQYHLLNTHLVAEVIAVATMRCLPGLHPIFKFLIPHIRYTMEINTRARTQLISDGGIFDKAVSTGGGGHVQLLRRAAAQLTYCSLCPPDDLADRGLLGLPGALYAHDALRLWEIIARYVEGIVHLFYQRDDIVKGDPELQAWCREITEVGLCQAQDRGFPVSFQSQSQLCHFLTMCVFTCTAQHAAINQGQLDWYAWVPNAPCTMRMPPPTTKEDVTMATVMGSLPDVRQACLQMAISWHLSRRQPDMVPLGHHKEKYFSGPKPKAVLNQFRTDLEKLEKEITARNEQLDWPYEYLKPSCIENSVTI

Series [15] can be described thus: Metabolic stability in mouse plasma assessed as compound remaining measured at 2 hrs. The settings on record: read-out: Stability. The series is classed as ADME, cell-free.
Series [16] can be described thus: Stability of the compound in PBS buffer at pH 7.4 measured at 48 hrs. The series is classed as physicochemical. Conditions: read-out: Stability.
Series [17] addresses T3, Polyunsaturated fatty acid lipoxygenase ALOX12 (Mus musculus) (UniProt P39655).
T3 sequence (whole entry): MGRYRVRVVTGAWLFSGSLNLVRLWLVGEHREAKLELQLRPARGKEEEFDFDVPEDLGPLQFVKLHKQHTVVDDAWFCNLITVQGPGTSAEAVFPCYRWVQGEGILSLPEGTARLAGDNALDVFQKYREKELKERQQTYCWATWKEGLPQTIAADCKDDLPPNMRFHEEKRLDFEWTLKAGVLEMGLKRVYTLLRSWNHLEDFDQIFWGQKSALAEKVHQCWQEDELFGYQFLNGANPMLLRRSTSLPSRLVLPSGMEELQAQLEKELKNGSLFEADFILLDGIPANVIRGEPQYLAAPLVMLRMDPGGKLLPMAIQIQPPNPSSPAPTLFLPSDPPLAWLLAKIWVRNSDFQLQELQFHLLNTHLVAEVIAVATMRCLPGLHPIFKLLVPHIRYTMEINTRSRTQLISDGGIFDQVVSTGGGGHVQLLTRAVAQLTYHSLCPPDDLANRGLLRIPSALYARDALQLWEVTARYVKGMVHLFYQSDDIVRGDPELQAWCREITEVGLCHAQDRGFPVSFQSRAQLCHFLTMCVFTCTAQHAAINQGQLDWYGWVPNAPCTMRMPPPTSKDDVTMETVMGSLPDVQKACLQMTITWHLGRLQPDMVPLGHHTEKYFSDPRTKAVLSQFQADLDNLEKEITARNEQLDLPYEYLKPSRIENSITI
Description: Inhibition of 12-LOX in mouse BTC3 cells assessed as inhibition of arachidonic acid/calcium ionophore-induced 12-HETE production after 4 hrs by ELISA. It counts as cell-based.

The source made the active and inactive calls. No cut-off for these calls is given here.

In [1], `O=S(=O)(Nc1nc2ccccc2s1)c1ccc(NCc2cccc(Cl)c2O)cc1` returned a half-maximal inhibitory concentration (IC50) of 1.3 µM. Also, the Stability entry in the series filed under Rattus norvegicus is “Unstable”.

Take `COc1cccc(CNc2ccc(S(=O)(=O)Nc3nc4ccccc4s3)cc2)c1O` [VLX-1005]: the Stability result (in series [2]; in [3]; in series [5]; in [7]; with Liver microsome) was “Stable” throughout. In addition, the values for the solubility entry in [4] and in [12] were “soluble” and below 5 µg/mL, respectively. Also, the Cmax with Mus musculus [6] turned out to be 38 µM; with Mus musculus [10], 112 µM. Also, in [8], the inhibition result was “inactive”. For the same compound, the AUC was 67 µM·h with Mus musculus [9] and 34 µM·h in the series with Mus musculus [11]. The Vd in the series with Mus musculus [13] is 0.55 L/kg.

Take `COc1cccc(CNc2ccc(S(=O)(=O)Nc3nc4ccccc4[nH]3)cc2)c1O`: the inhibition result in series [8] is “inactive”.

In turn, `O=S(=O)(Nc1nccs1)c1ccc(NCc2ccccc2)cc1` registered an IC50 in series [14] above 40 µM.

Consider `Nc1ccccc1CNc1ccc(S(=O)(=O)Nc2nccs2)cc1`, for which the IC50 in [14] is above 40 µM.

Consider `O=S(=O)(Nc1nccs1)c1ccc(NCc2ccccc2O)cc1`, for which, in [14], the IC50 is above 40 µM.

Turning to `COc1cccc(CNc2ccc(S(=O)(=O)Nc3nc4ccccc4o3)cc2)c1O`, the remaining at 2 h in series [15] stood at 100%. For the same compound, in series [4], the solubility entry was “soluble”. The Stability result (in series [7]; in the series with Liver microsome) was “Stable” each time. Also, in series [8], the inhibition entry is “inactive”. The remaining at 48 h in series [16] is 100%. In series [17], the inhibition result is “Active”.

On to `O=S(=O)(Nc1nccs1)c1ccc(NCc2cccc(O)c2)cc1`, for which, in [14], the IC50 is above 40 µM.
